Molecular target: T1, PfMDH (Plasmodium falciparum, UniProt Q6VVP7)
T1 construct: The full-length WT PfMDH gene was cloned into pETM-13; made in house; host or cells: E. coli Rosetta 2 (DE3) pLysS
Assay: Thermal shift assay (TSA)
Assay type: binding
Conditions: for TSA melting curve raw signal: triplicate columns; for TSA melting curve raw fluorescence signal: three replicate columns
Procedure, shortened: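 10 μM PfMDH with 1 mM compound in 100 mM Na–phosphate pH 7.4, 400 mM NaCl, 10× Sypro Orange; 1% DMSO controls. Melting inflection points taken as Tm; shifts >1 °C read as stabilization, negative shifts as destabilization.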

T1 sequence (Q6VVP7 entry or part of it): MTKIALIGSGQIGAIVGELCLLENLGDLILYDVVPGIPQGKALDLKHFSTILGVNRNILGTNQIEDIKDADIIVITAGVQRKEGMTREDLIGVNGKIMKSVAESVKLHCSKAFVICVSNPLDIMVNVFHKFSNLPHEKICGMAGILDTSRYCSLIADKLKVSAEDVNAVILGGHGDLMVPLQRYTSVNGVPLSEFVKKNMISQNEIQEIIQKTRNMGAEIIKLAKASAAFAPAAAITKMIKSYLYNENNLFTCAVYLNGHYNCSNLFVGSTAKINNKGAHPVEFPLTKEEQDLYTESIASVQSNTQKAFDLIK

SMILES: Nc1nc(-c2cccc(C(F)(F)F)c2)cs1 [4PA-CF3]
- TSA melting curve raw signal (Temperature 25): 3528,09586476992
- TSA melting curve raw signal (Temperature 25.5): 3521,76972099321
- TSA melting curve raw signal (Temperature 26): 3515,44357721651
- TSA melting curve raw signal (Temperature 26.5): 3509,11743343981
- TSA melting curve raw signal (Temperature 27): 3502,7912896631
- TSA melting curve raw signal (Temperature 27.5): 3496,46514588642
- TSA melting curve raw signal (Temperature 28): 3490,13900210971
- TSA melting curve raw signal (Temperature 28.5): 3483,6143624971
- TSA melting curve raw signal (Temperature 29): 3476,38988350175
- TSA melting curve raw signal (Temperature 29.5): 3468,17176134374
- TSA melting curve raw signal (Temperature 30): 3458,89345122044
- TSA melting curve raw signal (Temperature 30.5): 3449,61666086928
- TSA melting curve raw signal (Temperature 31): 3441,08813548452
- TSA melting curve raw signal (Temperature 31.5): 3434,74480463775
- TSA melting curve raw signal (Temperature 32): 3431,63306422988
- TSA melting curve raw signal (Temperature 32.5): 3433,04755783933
- TSA melting curve raw signal (Temperature 33): 3439,08846015031
- TSA melting curve raw signal (Temperature 33.5): 3450,49167244057
- TSA melting curve raw signal (Temperature 34): 3467,07326310557
- TSA melting curve raw signal (Temperature 34.5): 3489,23124555062
- TSA melting curve raw signal (Temperature 35): 3516,74965348479
- TSA melting curve raw signal (Temperature 35.5): 3550,12307997406
- TSA melting curve raw signal (Temperature 36): 3588,6701161146
- TSA melting curve raw signal (Temperature 36.5): 3632,52278047685
- TSA melting curve raw signal (Temperature 37): 3681,13015232277
- TSA melting curve raw signal (Temperature 37.5): 3734,10747497721
- TSA melting curve raw signal (Temperature 38): 3790,66694872421
- TSA melting curve raw signal (Temperature 38.5): 3851,32307413445
- TSA melting curve raw signal (Temperature 39): 3915,60016677996
- TSA melting curve raw signal (Temperature 39.5): 3983,88715310611
- TSA melting curve raw signal (Temperature 40): 4056,33336034943
- TSA melting curve raw signal (Temperature 40.5): 4133,49326014565
- TSA melting curve raw signal (Temperature 41): 4215,01497025314
- TSA melting curve raw signal (Temperature 41.5): 4301,78127396551
- TSA melting curve raw signal (Temperature 42): 4393,43575455581
- TSA melting curve raw signal (Temperature 42.5): 4490,37169124646
- TSA melting curve raw signal (Temperature 43): 4592,69941738304
- TSA melting curve raw signal (Temperature 43.5): 4701,32966638299
- TSA melting curve raw signal (Temperature 44): 4815,85327556672
- TSA melting curve raw signal (Temperature 44.5): 4937,62413315095
- TSA melting curve raw signal (Temperature 45): 5067,14562465788
- TSA melting curve raw signal (Temperature 45.5): 5204,83599333482
- TSA melting curve raw signal (Temperature 46): 5349,70118139591
- TSA melting curve raw signal (Temperature 46.5): 5501,84311892238
- TSA melting curve raw signal (Temperature 47): 5660,17327748149
- TSA melting curve raw signal (Temperature 47.5): 5824,5723421521
- TSA melting curve raw signal (Temperature 48): 5994,36303099828
- TSA melting curve raw signal (Temperature 48.5): 6169,71492788648
- TSA melting curve raw signal (Temperature 49): 6349,90301622462
- TSA melting curve raw signal (Temperature 49.5): 6533,67708046246
- TSA melting curve raw signal (Temperature 50): 6718,43346697938
- TSA melting curve raw signal (Temperature 50.5): 6903,01197489117
- TSA melting curve raw signal (Temperature 51): 7086,14140810373
- TSA melting curve raw signal (Temperature 51.5): 7267,40973427596
- TSA melting curve raw signal (Temperature 52): 7446,07311090688
- TSA melting curve raw signal (Temperature 52.5): 7623,17790419487
- TSA melting curve raw signal (Temperature 53): 7798,35186729642
- TSA melting curve raw signal (Temperature 53.5): 7971,57187818721
- TSA melting curve raw signal (Temperature 54): 8142,18042787582
- TSA melting curve raw signal (Temperature 54.5): 8310,47539211232
- TSA melting curve raw signal (Temperature 55): 8475,6367965612
- TSA melting curve raw signal (Temperature 55.5): 8637,15264587991
- TSA melting curve raw signal (Temperature 56): 8794,24720730786
- TSA melting curve raw signal (Temperature 56.5): 8944,76644495546
- TSA melting curve raw signal (Temperature 57): 9087,23982318044
- TSA melting curve raw signal (Temperature 57.5): 9218,83300839243
- TSA melting curve raw signal (Temperature 58): 9336,46564098951
- TSA melting curve raw signal (Temperature 58.5): 9436,67708833889
- TSA melting curve raw signal (Temperature 59): 9517,94306567009
- TSA melting curve raw signal (Temperature 59.5): 9577,90589829803
- TSA melting curve raw signal (Temperature 60): 9615,75986877433
- TSA melting curve raw signal (Temperature 60.5): 9632,47637998784
- TSA melting curve raw signal (Temperature 61): 9629,58012627007
- TSA melting curve raw signal (Temperature 61.5): 9608,67157988917
- TSA melting curve raw signal (Temperature 62): 9572,5500875914
- TSA melting curve raw signal (Temperature 62.5): 9524,64551903011
- TSA melting curve raw signal (Temperature 63): 9467,03768559296
- TSA melting curve raw signal (Temperature 63.5): 9402,51349679748
- TSA melting curve raw signal (Temperature 64): 9333,57184164816
- TSA melting curve raw signal (Temperature 64.5): 9261,62563971527
- TSA melting curve raw signal (Temperature 65): 9187,49083186044
- TSA melting curve raw fluorescence signal (Temperature 65.5): 9112,23978010048
- TSA melting curve raw fluorescence signal (Temperature 66): 9036,14068242361
- TSA melting curve raw fluorescence signal (Temperature 66.5): 8959,64465212255
- TSA melting curve raw fluorescence signal (Temperature 67): 8882,7175782058
- TSA melting curve raw fluorescence signal (Temperature 67.5): 8805,44643012468
- TSA melting curve raw fluorescence signal (Temperature 68): 8728,2852860298
- TSA melting curve raw fluorescence signal (Temperature 68.5): 8651,13021944227
- TSA melting curve raw fluorescence signal (Temperature 69): 8573,32870649645
- TSA melting curve raw fluorescence signal (Temperature 69.5): 8495,58180428762
- TSA melting curve raw fluorescence signal (Temperature 70): 8418,5896254098
- TSA melting curve raw fluorescence signal (Temperature 70.5): 8341,60149220391
- TSA melting curve raw fluorescence signal (Temperature 71): 8265,01816022305
- TSA melting curve raw fluorescence signal (Temperature 71.5): 8189,69867306721
- TSA melting curve raw fluorescence signal (Temperature 72): 8115,16555879573
- TSA melting curve raw fluorescence signal (Temperature 72.5): 8040,74958248259
- TSA melting curve raw fluorescence signal (Temperature 73): 7967,12767450409
- TSA melting curve raw fluorescence signal (Temperature 73.5): 7893,92662128296
- TSA melting curve raw fluorescence signal (Temperature 74): 7821,33430208039
- TSA melting curve raw fluorescence signal (Temperature 74.5): 7749,70992701054
- TSA melting curve raw fluorescence signal (Temperature 75): 7679,18807246448
- TSA melting curve raw fluorescence signal (Temperature 75.5): 7609,86094414536
- TSA melting curve raw fluorescence signal (Temperature 76): 7542,08165155543
- TSA melting curve raw fluorescence signal (Temperature 76.5): 7475,0463497461
- TSA melting curve raw fluorescence signal (Temperature 77): 7409,10099573983
- TSA melting curve raw fluorescence signal (Temperature 77.5): 7344,43096825342
- TSA melting curve raw fluorescence signal (Temperature 78): 7280,55827608543
- TSA melting curve raw fluorescence signal (Temperature 78.5): 7217,66024170967
- TSA melting curve raw fluorescence signal (Temperature 79): 7156,47260834302
- TSA melting curve raw fluorescence signal (Temperature 79.5): 7096,07409325447
- TSA melting curve raw fluorescence signal (Temperature 80): 7036,61045690039
- TSA melting curve raw fluorescence signal (Temperature 80.5): 6978,28713486927
- TSA melting curve raw fluorescence signal (Temperature 81): 6920,87145232924
- TSA melting curve raw fluorescence signal (Temperature 81.5): 6863,63731764689
- TSA melting curve raw fluorescence signal (Temperature 82): 6807,28937755567
- TSA melting curve raw fluorescence signal (Temperature 82.5): 6751,29328141381
- TSA melting curve raw fluorescence signal (Temperature 83): 6695,78422169472
- TSA melting curve raw fluorescence signal (Temperature 83.5): 6641,03413791343
- TSA melting curve raw fluorescence signal (Temperature 84): 6587,1569082437
- TSA melting curve raw fluorescence signal (Temperature 84.5): 6533,84298175497
- TSA melting curve raw fluorescence signal (Temperature 85): 6481,33407729233
- TSA melting curve raw fluorescence signal (Temperature 85.5): 6429,30339853042
- TSA melting curve raw fluorescence signal (Temperature 86): 6377,40763821637
- TSA melting curve raw fluorescence signal (Temperature 86.5): 6325,81148238932
- TSA melting curve raw fluorescence signal (Temperature 87): 6274,52300647726
- TSA melting curve raw fluorescence signal (Temperature 87.5): 6222,85213595833
- TSA melting curve raw fluorescence signal (Temperature 88): 6171,16491119654
- TSA melting curve raw fluorescence signal (Temperature 88.5): 6119,12156951999
- TSA melting curve raw fluorescence signal (Temperature 89): 6066,61924971662
- TSA melting curve raw fluorescence signal (Temperature 89.5): 6013,73939632859
- TSA melting curve raw fluorescence signal (Temperature 90): 5961,79604131278
- TSA melting curve raw fluorescence signal (Temperature 90.5): 5910,31866711244
- TSA melting curve raw fluorescence signal (Temperature 91): 5859,96386783167
- TSA melting curve raw fluorescence signal (Temperature 91.5): 5810,60393842017
- TSA melting curve raw fluorescence signal (Temperature 92): 5761,96047868944
- TSA melting curve raw fluorescence signal (Temperature 92.5): 5713,35101332965
- TSA melting curve raw fluorescence signal (Temperature 93): 5664,77915169386
- TSA melting curve raw fluorescence signal (Temperature 93.5): 5615,83290965879
- TSA melting curve raw fluorescence signal (Temperature 94): 5566,24729616446
- TSA melting curve raw fluorescence signal (Temperature 94.5): 5516,6627489992
- TSA melting curve raw fluorescence signal (Temperature 95): 5465,82751388956

Reference: article PMC8355244, “A fragment-based approach identifies an allosteric pocket that impacts malate dehydrogenase activity” (Communications Biology, 2021)
